Laboratory results: PMC3702540, “Sphingosine Kinase Activity Is Not Required for Tumor Cell Viability” (PLoS ONE, 2013)

Legend:
[1] = tested on: human cell lines; assay: Cellular SPHK activity, C17 S1P levels, summary for human cell lines; assay type: cell-based
[2] = tested on: panel of cell lines; assay: 72 h viability assays, summary for panel of cell lines; assay type: cell-based; conditions: regular culture conditions and serum starvation
Protocol: (§1) Cell lines were obtained from ATCC and cultured in Dulbecco’s Modification of Eagle’s Medium (Corning® cellgro 10-013) supplemented with 5% FBS and 1% P/S or in Minimum Essential Medium (Corning® cellgro® 10-010) supplemented with 10% FBS, 0.1 mM MEM Nonessential Amino Acids (Corning® cellgro 25-025), 1.0 mM sodium pyruvate (Corning® cellgro 25-000) and 1% P/S. Cells were seeded at a density of 5000 cells per well in 96-well cell culture plates on day1. Media was changed with or without serum and dosed with compound on Day 2. On day5 the Cell Viability assay was performed with CellTiter-Glo® Reagent (Promega) according to the manufacturers instruction.
(§2) S1P has been reported to be important for tumor cell viability, and reduction of intracellular S1P levels has been associated with greater cellular sensitivity to pro-apoptotic stress, [7]. […] A panel of cell lines likely to be sensitive to SPHK inhibition was assembled based on literature reports, internal siRNA data and SPHK expression levels, [9], [21]. Viability was monitored after 72 h of SPHK inhibition under regular culture conditions to assess direct effects on cell viability, and under serum starvation to assess the effects of SPHK inhibition under stress conditions.

[3] = tested on: murine melanoma cell line B16F10; assay: Cellular SPHK activity, C17 S1P levels; conditions: Mus musculus, B16-F10, 2 h, read-out: IC50, inhibition of cellular SPHK activity (C17 S1P)
Protocol: (§9) Frozen cell pellets (1×10^6 cells) were thawed and 75 µl of methanol was added. The samples were transferred to an un-skirted 96 well PCR plate after which they were mixed to a homogeneous solution. The plate was then sealed and pulsed for 6 seconds per well (E200-S0%250 mV500 setting) on a Covaris Adaptive Focused Acoustic (AFA) cell disruptor (Covaris, Woburn, MA). 130 µl of Dichloromethane was then added to each well after which plates were incubated at room temperature for 2 hours. Post incubation, 52 µl of ddH2O was added to induce phase separation. […] 45 µl of this final sample was transferred to a 384 well plate and analyzed on a RapidfireTM (Biocius, Wakefield, MA) ultra-high throughput chromatography system interfaced with a TSQ Vantage triple stage quadrupole mass spectrometer (Thermo Scientific, Waltham, MA). […] After an aqueous wash ((80∶20) Methanol/ddH2O containing 75 mM NH4OH and 0.1% formic acid) to remove the S1P extraction components that interfere with mass spectrometry, C17-S1P was eluted ((99∶1) Methanol/ddH2O containing 0.1% formic acid) and analyzed by inline triple stage quadrupole mass spectrometry. […] C17-S1P was monitored using a selective reaction monitoring protocol which detected the loss of a phosphate molecule from the parent ion C17-S1P. […]
(§10) Two hours after addition of C17 sphingosine, cells were lysed and levels of C17 S1P were determined.

[4] = tested on: MDA-MB-231 xenograft tumors; assay: MDA-MB-231 tumor xenograft model; assay type: in vivo; conditions: athymic nude mice
Protocol: MDA-MB-231 cells were purchased from the American Type Culture Collection (ATCC) and maintained in DMEM high glucose with 10% fetal bovine serum (FBS) and 1x-L-glutamine. Mice were injected subcutaneously with 5×10^6 cells in 30% Matrigel (BD Biosciences, San Jose, CA). […] Vehicle and compound A were administered by oral gavage daily. Taxotere was administered by intraperitoneal injection once a week. Tumor dimensions were assessed twice weekly with a Pro-Max electronic digital caliper (Sylvac, Crissier, Switzerland) and tumor volume was calculated using the formula: length x width x height and expressed as mm^3. Data are expressed as mean +/− SE (n = 7–10). Repeated-measures analysis of variance (RMANOVA) followed by Dunnett’s post hoc test for multiple comparisons was used to evaluate statistical significance of observed differences. Body weight was recorded twice weekly as an index of toxicity.
Here, athymic nude mice were implanted s.c. with human MDA-MD-231 breast cancer cells. Dosing was initiated 18 days later when the tumors had reached ∼ 200 mm^3.
Female athymic nude mice were injected with 5×10^6 MDA-MB-231 cells on day 0. […] (n = 7–10 per group); bars, SE. *, P<0.0001, compared to vehicle.

[5] = tested on: human melanoma cell line WM266.4; assay: Cellular SPHK activity, C17 S1P levels; conditions: WM 266-4, 2 h, read-out: IC50, inhibition of cellular SPHK activity (C17 S1P)
Protocol: as §9, §10

[6] = tested on: LOX; assay: 72 h viability assay (CellTiter-Glo); assay type: cell-based, human; conditions: LOX (Skin), inflection point of titration curve
Protocol: as §1, §2
(§3) The IC50s reflect the inflection point of the titration curve.

[7] = tested on: human breast cancer cell line MDA-MB-231; assay: Cellular SPHK activity, C17 S1P levels; conditions: MDA-MB-231, 2 h, read-out: IC50, inhibition of cellular SPHK activity (C17 S1P)
Protocol: as §9, §10

[8] = biological target: mSPHK1 (Mus musculus, UniProt Q8CI15); assay: Biochemical SPHK activity, 33P incorporation into S1P; set-up: species or system murine; conditions: biochemical assay
Protocol: (§4) A biochemical assay was used to measure the incorporation of ^33P-radiolabeled phosphate from ATP into S1P. Reactions were performed in 96-well polystyrene high-binding microplates (Greiner) in a volume of 60 µl. Reaction mixtures contained 50 mM HEPES (pH 7.5), 3 mM MgCl2, 10 mM NaF, 1 µM ATP, 0.75 µCi of [γ-33P]ATP, 1.11 µM sphingosine (Biomol International) in the presence of either 0.005% Triton X-100 (SPHK1) or 0.0025% NP-40 (SPHK2). Enzymatic reactions were initiated by adding 30 nM of sphingosine kinase in the presence of 2 mM dithiothreitol (DTT). Reactions were terminated after 50 min at 30°C by adding 30 µL 7.5 M Guanidine HCl. Plates were then washed three times with 200 µl PBS before 50 ul of scintillate was added to each well. The assay was quantified by counting in a Packard TopCount (Perkin Elmer).

[9] = tested on: HeLa; assay: 72 h viability assay (CellTiter-Glo); assay type: cell-based; conditions: Homo sapiens, HeLa (Cervix), inflection point of titration curve
Protocol: as §1
(§5) S1P has been reported to be important for tumor cell viability, and reduction of intracellular S1P levels has been associated with greater cellular sensitivity to pro-apoptotic stress, [7]. Compounds A and B were used to test this hypothesis experimentally. A panel of cell lines likely to be sensitive to SPHK inhibition was assembled based on literature reports, internal siRNA data and SPHK expression levels, [9], [21]. Viability was monitored after 72 h of SPHK inhibition under regular culture conditions to assess direct effects on cell viability, and under serum starvation to assess the effects of SPHK inhibition under stress conditions. […] Cell death was only observed at higher concentrations (3 to 30 µM). […] Like all substrate competitive SPHK inhibitors, these compounds have a polar headgroup and a lipophilic tail, and can act as detergents at higher concentrations. […]

[10] = tested on: A375; assay: 72 h viability assay (CellTiter-Glo); assay type: cell-based; conditions: Homo sapiens, A-375, A375 (Skin), inflection point of titration curve
Protocol: as §1, §5

[11] = tested on: HS294T; assay: 72 h viability assay (CellTiter-Glo); assay type: cell-based; conditions: Homo sapiens, Hs 294T, HS294T (Skin), inflection point of titration curve
Protocol: as §1, §5

[12] = tested on: UACC257; assay: 72 h viability assay (CellTiter-Glo); assay type: cell-based; conditions: Homo sapiens, UACC-257, UACC257 (Skin), inflection point of titration curve
Protocol: as §1, §5

[13] = tested on: Saos2; assay: 72 h viability assay (CellTiter-Glo); assay type: cell-based; conditions: Homo sapiens, SAOS-2, Saos2 (Bone), inflection point of titration curve
Protocol: as §1, §5

[14] = tested on: LN18; assay: 72 h viability assay (CellTiter-Glo); assay type: cell-based; conditions: Homo sapiens, LN-18, LN18 (Brain), inflection point of titration curve
Protocol: as §1, §5

[15] = tested on: HA-1; assay: 72 h viability assay (CellTiter-Glo); assay type: cell-based; conditions: read-out: IC50 viability
Protocol: as §1, §5

[16] = tested on: LN229; assay: 72 h viability assay (CellTiter-Glo); assay type: cell-based; conditions: Homo sapiens, LN-229, LN229 (Brain), inflection point of titration curve
Protocol: as §1, §5

[17] = tested on: WM266-4; assay: 72 h viability assay (CellTiter-Glo); assay type: cell-based; conditions: Homo sapiens, WM 266-4, WM266-4 (Skin), inflection point of titration curve
Protocol: as §1, §5

[18] = tested on: Colo 320; assay: 72 h viability assay (CellTiter-Glo); assay type: cell-based; conditions: Homo sapiens, Colo 320 (Colon), inflection point of titration curve
Protocol: as §1, §5

[19] = Compound plasma concentration in mice after oral gavage; assay type: in vivo
Protocol: (§6) For S1P measurements, plasma was extracted with 0.1% formic acid/methanol containing an internal standard (C17-S1P) and subjected to LC-MS/MS analysis. […] The method provided linear response over a concentration range of 1 to 2000 ng/ml. A separate aliquot of plasma was extracted with acetonitrile containing an internal standard (structural analog) and subjected to reversed-phase liquid chromatographic using a Shiseido UG Capcell C18, 50×2 mm analytical column (Phenomenex). MS/MS analysis was conducted on a API4000 with an electrospray interface using multiple reaction monitoring (MRM) in the positive ionization mode.
(§7) Female athymic nude mice were assigned to one of fifteen treatment groups. […] At various times after dosing (2 to 24 h), mice were sacrificed and plasma collected to determine S1P levels and compound concentrations. Data are mean ± SE (n = 5). […] S1P and drug concentration were determined by LC-MS/MS.
(§8) The inhibition of sphingosine kinase was evaluated in a pharmacodynamic assay. […] At 2, 7 and 24 hours post dose, plasma was collected and levels of S1P and plasma drug concentration were determined.

[20] = tested on: plasma levels of S1P; assay: Pharmacodynamic assay, plasma S1P levels in mice; assay type: in vivo
Protocol: as §6, §7, §8

[21] = tested on: LN229 cells; assay: 15 day colony formation assay; assay type: cell-based, human; conditions: concentrations up to 1 µM
Protocol: LN-229 cells were cultured in Dulbecco’s Modification of Eagle’s Medium (Corning® cellgro 10-013) supplement with 5%FBS and 1% P/S. On Day 1 cells were seeded on 6-well tissue culture plates at density of 800 cells per well. On Day 2 compounds were added and cells were incubated for 15 days at 37°C. Cells were then stained with Crystal violet.
The long term effect of SPHK inhibition on cell viability was studied in the glioblastoma cell line LN229. […] Concentrations of more than 3 µM led to immediate cell death due to cell lysis and prevented the formation of colonies (figure 5).
Figure 5 Effects of SPHK inhibition in colony formation assays. LN229 cells were seeded at a density of 800 cells/well in a six well plate in the presence of the indicated concentrations of SPHK inhibitor. After 15 days, cells were fixed and stained with crystal violet.

[22] = biological target: hSPHK2 (Homo sapiens, UniProt Q9NRA0); assay: Biochemical SPHK activity, 33P incorporation into S1P; conditions: biochemical assay
Protocol: as §4

[23] = biological target: hSPHK1 (Homo sapiens, UniProt Q9NYA1); assay: as above; conditions: biochemical assay
Protocol: as §4

[24] = biological target: mSPHK2 (Mus musculus, UniProt Q9JIA7); assay: as above; set-up: species or system murine; conditions: biochemical assay
Protocol: as §4

[25] = tested on: SPHK1; set-up: method as in PMID 22397330; conditions: cited from earlier work
[26] = tested on: human melanoma cell line LOX; assay: Endogenous S1P levels 24 h after compound treatment; assay type: cell-based; conditions: 24 h treatment, read-out: IC50, endogenous S1P production (LOX)
From the text: Several SPHK inhibitors have been reported in the literature, and have been utilized to support the rheostat theory.
as §3

Chain of mSPHK1 (Q8CI15 whole entry): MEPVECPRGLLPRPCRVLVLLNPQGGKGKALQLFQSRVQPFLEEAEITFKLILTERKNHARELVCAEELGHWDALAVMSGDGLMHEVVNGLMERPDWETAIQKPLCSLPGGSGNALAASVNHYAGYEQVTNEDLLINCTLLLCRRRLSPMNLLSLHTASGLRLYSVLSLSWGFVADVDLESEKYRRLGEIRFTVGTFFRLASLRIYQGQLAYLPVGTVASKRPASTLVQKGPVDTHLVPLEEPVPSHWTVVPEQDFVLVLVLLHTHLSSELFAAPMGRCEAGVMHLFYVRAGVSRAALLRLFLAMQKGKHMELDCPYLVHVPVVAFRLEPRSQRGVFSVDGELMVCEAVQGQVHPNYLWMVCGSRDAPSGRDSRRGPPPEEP
Chain of hSPHK2 (Q9NRA0 whole entry): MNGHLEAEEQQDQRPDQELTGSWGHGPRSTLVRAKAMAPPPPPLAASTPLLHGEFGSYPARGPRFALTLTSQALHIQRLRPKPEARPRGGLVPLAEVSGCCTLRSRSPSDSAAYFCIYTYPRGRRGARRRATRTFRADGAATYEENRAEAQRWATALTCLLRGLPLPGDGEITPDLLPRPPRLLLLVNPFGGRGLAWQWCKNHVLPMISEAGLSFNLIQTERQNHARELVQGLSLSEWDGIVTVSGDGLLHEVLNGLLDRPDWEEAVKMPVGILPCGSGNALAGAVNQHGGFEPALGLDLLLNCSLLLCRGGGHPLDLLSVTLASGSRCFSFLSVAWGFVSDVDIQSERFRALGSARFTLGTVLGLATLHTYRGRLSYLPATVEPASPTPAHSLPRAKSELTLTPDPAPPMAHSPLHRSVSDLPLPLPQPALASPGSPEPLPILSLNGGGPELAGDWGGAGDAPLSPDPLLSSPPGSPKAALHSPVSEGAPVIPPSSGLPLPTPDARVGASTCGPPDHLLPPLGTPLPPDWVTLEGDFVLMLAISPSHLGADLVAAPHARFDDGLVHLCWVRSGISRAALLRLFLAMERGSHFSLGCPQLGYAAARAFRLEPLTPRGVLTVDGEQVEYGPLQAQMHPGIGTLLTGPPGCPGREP
Chain of mSPHK2 (Q9JIA7 whole entry): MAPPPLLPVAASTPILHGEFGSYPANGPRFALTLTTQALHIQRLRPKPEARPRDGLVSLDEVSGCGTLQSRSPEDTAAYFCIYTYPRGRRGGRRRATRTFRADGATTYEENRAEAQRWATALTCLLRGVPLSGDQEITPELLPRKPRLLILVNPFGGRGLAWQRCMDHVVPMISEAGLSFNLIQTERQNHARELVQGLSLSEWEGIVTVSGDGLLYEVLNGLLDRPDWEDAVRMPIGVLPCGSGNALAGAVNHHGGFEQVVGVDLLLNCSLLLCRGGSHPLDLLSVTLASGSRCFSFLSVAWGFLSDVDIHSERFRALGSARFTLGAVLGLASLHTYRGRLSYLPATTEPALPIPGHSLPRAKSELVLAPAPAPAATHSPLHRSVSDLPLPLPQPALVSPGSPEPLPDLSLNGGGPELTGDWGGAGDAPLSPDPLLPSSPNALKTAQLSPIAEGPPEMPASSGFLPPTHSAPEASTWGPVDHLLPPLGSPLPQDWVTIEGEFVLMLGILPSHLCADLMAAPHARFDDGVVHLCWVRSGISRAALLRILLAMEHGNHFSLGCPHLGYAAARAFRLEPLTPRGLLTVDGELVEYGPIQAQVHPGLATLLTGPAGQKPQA
Chain of hSPHK1 (Q9NYA1 whole entry): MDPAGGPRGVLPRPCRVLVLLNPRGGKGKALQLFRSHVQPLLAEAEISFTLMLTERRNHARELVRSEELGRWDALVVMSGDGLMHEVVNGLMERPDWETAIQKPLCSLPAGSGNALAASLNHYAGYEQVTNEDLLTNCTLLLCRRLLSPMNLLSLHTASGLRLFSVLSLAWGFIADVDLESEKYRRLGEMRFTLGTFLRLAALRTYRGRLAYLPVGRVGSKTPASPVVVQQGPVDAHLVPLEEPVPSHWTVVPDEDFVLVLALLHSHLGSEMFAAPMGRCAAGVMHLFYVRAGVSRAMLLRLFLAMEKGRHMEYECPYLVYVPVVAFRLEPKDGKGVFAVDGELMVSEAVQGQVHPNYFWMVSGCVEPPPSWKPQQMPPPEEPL

Row | Compound | IC50s, inhibition of SPHK activity in human cell lines [1] | effect on viability at 1 µM compound [2] | IC50 [5] [µM] | IC50 ([6]; Homo sapiens) [µM] | IC50 [8] [µM] | IC50 [9] [µM] | IC50 [10] [µM] | IC50 [11] [µM] | IC50 [12] [µM] | IC50 [13] [µM] | IC50 [14] [µM] | IC50 [15] [µM] | IC50 [16] [µM] | IC50 [17] [µM] | IC50 [18] [µM] | viability in 72 h proliferation and 15 day colony formation assays [21] | IC50 [22] [µM] | IC50 [24] [µM] | further results
1 | OC[C@H]1C[C@@H](O)CCN1CCc1ccc(Nc2nc(-c3ccc(C(F)(F)F)cc3)cs2)cc1 [Compound A] | double digit nanomolar range | did not result in reduced viability | 0.063 | 4 | 0.064 | 6.4 | 8.3 | 6 | 4.4 | 7 | 4.1 | 6.3 | 4.8 | 6 | 5.1 | viability was unchanged | – | – | IC50 [3]: 0.25 µM; effect on tumor growth in vivo ([4]; 300 mg/kg daily by oral gavage from day 18): did not lead to significant inhibition of tumor growth; mice in which compound was not tolerated (deaths) ([4]; 300 mg/kg daily by oral gavage, cause of death unknown): 3 out of the 10; IC50 [7]: 0.09 µM; oral bioavailability [19]: orally bioavailable; plasma exposure at maximum inhibition of plasma S1P [19]: 0.38 µM; reduction of host / plasma S1P levels ([20]; 300 mg/kg oral): more than 70%; maximum inhibition of plasma levels of S1P ([20]; oral gavage 10-300 mg/kg, at plasma exposure of 0.38 µM): 72%
2 | OC[C@H]1C[C@H](O)CN1CCCc1ccc(Nc2nc(-c3cccc(C(F)(F)F)c3)cs2)cc1 [Compound B] | double digit nanomolar range | did not result in reduced viability | 0.036 | 6.2 | 0.055 | 14.3 | 17.4 | 10.1 | 6.5 | 13.5 | 5.5 | 15.5 | 8.7 | 13.2 | 9.4 | viability was unchanged | 0.06 | > 5 | IC50 [23]: 0.008 µM
3 | CCCCCc1ccc(/C=C/[C@H](O)[C@@H](CO)NC)cc1 [SK1-I] | – | – | – | – | – | – | – | – | – | – | – | – | – | – | – | – | – | – | biochemical IC50 [25]: in the micromolar range
4 | Oc1ccc(Nc2nc(-c3ccc(Cl)cc3)cs2)cc1 [SKII, reference compound] | – | – | – | – | > 10 | – | – | – | – | – | – | – | – | – | – | – | 13 | > 10 | IC50 [26]: 7.5 µM; IC50 [6]: 11.3 µM; IC50 (mSPHK1) [8]: too low to be detected
